These results are taken from article PMC3791940, “Compounds from Gum Ammoniacum with Acetylcholinesterase Inhibitory Activity” (Scientia Pharmaceutica, 2013).

Read-outs that look alike come from different tables or passages of the source.

The test deals with T1, AChE from electric eel (Electrophorus electricus, UniProt O42275).
T1 construct: purchased Sigma (St. Louis, USA)
As to the kind of experiment: Quantitative colorimetric microplate assay based on Ellman's method for AChE inhibitory activity. The format is biochemical. As to conditions: for IC50: read-out: IC50, inhibition of AchE (converted). Here is the method:
The tested concentrations of the samples ranged from 1.56 to 200 μg/mL. Based on the resulting curves, the IC50 values for AChE inhibition were calculated using the respective curves’ equations (Table 1).
Acetylthiocholine iodide (ATCI) and chelidonine were obtained from Fluka (Buchs, Switzerland). Fast Blue B salt (FBS) and silica gel 60 were from Merck (Darmstadt, Germany). The solvents MeOH, EtOAc, CH2Cl2, and CHCl3 were purchased from VWR (Vienna, Austria). Two different buffer systems were used (buffer A: 50 mM Tris-HCl, pH 7.9 containing 0.1% BSA; buffer B: 50 mM Tris-HCl, pH 7.9 containing 0.1 M NaCl and 0.02 M MgCl2·6H2O).
A quantitative colorimetric assay based on Ellman’s method was used to measure the AChE inhibitory activities of the substances. Briefly, in a 96-well plate, 25 μL of 15 mM ATCI, 125 μL of 3 mM DTNB in buffer B, 50 μL of buffer A, and 25 μL of the extract or the isolated substances (from 15.6 μg/mL to 2.0 mg/mL in 10% DMSO) were thoroughly mixed and the absorbance was read at 405 nm five times every 15 s. Finally, 25 μL of AChE (0.22 U/mL in buffer A) were added and the plate was incubated at 25°C for 10 minutes. Then the absorbance was measured again eight times every 15 s. A 10% DMSO solution was used as the negative control. To compensate for any increase in absorbance due to the color of the extracts or spontaneous hydrolysis of the substrate, the absorbance before the addition of the enzyme was subtracted from the absorbance after adding the enzyme. The assay was repeated three times for every concentration.
On the technique in general: Ellman's reagent forms a yellow product with free thiols.

Setting [1] is: n=3, 25°C, 10 min incubation, tested 1.56 to 200 μg/mL.
Where [2] appears, read: n=3, same values given in molar unit.

T1 sequence (O42275 24-633): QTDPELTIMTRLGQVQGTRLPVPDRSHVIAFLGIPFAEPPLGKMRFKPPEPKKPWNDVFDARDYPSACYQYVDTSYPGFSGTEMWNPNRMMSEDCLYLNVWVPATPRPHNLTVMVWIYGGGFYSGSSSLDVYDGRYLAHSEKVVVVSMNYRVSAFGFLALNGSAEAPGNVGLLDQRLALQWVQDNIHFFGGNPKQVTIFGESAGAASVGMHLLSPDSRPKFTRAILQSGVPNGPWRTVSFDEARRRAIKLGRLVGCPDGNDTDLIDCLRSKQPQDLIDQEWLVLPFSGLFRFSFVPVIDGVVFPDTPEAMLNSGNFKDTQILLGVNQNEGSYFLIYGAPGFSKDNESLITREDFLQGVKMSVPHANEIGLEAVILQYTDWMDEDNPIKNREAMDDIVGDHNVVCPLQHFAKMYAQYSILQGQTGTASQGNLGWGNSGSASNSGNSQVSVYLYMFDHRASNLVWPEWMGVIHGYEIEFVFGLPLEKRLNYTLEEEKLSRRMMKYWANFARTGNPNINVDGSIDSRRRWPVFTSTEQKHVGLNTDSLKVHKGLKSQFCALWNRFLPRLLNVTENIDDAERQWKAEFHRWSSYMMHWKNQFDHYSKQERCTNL

As for `C=C[C@]1(C)CC[C@@H](C(C)C(O)C(=O)C=C(C)C)C12C(=O)Oc1cc(OC)ccc1C2=O` (stereo partly drawn) [Compound 1, (2′S,5′S)-2′-ethenyl-5′-(3hydroxy-6-methyl-4-oxohept-5-en-2-yl)-7-methoxy-2′-methyl-4H-spiro[chromene-3,1′-cyclopentane]-2,4-dione], the “AChE inhibitory activity (in words)” value was “only low activities”. Also, under setting [1], the IC50 (usually the concentration at which inhibition is half-maximal) is 181 µM. For the same compound, the IC50 under setting [2] is 181 µM.

Turning to `C=C[C@]1(C)CC[C@H]([C@@H](C)C(=O)[C@H](O)C=C(C)C)C12C(=O)Oc1cc(OC)ccc1C2=O` (stereo partly drawn) [Compound 2, (2′S,5′R)-2′-ethenyl-5′-[(2R,4R)-4-hydroxy-6-methyl-3-oxohept-5-en-2-yl]-7-methoxy-2′-methyl-4H-spiro[chromene-3,1′-cyclopentane]-2,4-dione], the “AChE inhibitory activity (in words)” value was “only low activities”. Besides, the IC50 under setting [1] is 236 µM. Moreover, the IC50 under setting [2] is 237 µM.

Regarding `CC(C)=CCC/C(C)=C/CC/C(C)=C/CCC(=O)c1ccc(O)cc1O` [Compound 3, (4E,8E)-1-(2,4-dihydroxyphenyl)-5,9,13-trimethyltetradeca-4,8,12-trien-1-one], under “comparison of IC50 values”, the “times more active than compounds 1, 2 and 4 (AChE inhibition)” value was “about 10 times”. For the same compound, the half-inhibitory concentration (IC50) runs as follows: under setting [1], 23.4 µM; under setting [2], 23.5 µM.

With `CC(C)=CCC/C(C)=C/CC/C(C)=C/Cc1c(O)c2ccc(O)cc2oc1=O` [Compound 4, 4,7-dihydroxy-3-[(2E,6E)-3,7,11-trimethyldodeca-2,6,10-trien-1-yl]-2H-chromen-2-one], the “AChE inhibitory activity (in words)” value was “only low activities”. In addition, the IC50 under setting [1] is 201 µM. Moreover, the IC50 under setting [2] is 201 µM.
